In patent US8673909B2, “Indole compounds and methods for treating visceral pain” (NeurAxon, Inc., priority 2007, dated 2014):

Assay: Human liver microsome in vitro metabolic stability assay
Type: in vitro ADME
Conditions: for Peak Area Ratio 0 min / Peak Area Ratio 15 min / Peak Area Ratio 30 min / Peak Area Ratio 60 min: human liver microsomes
Procedure: The compounds (10 μM) were incubated with pooled human liver microsomes in the presence and absence of the co-factor, β-Nicotinamide adenine dinucleotide phosphate (NADP^+), required for oxidative metabolism by the Cytochrome P-450 (CYP) and flavin containing monooxygenase (FMO) enzymes. A tandem liquid chromatography mass spectrometry (LC-MS/MS) method was developed and/or qualified for each compound for measuring relative stability of 6a, 6b, and 18 in the terminated reaction mixtures. The relative disappearance of the test compounds following 15, 30, and 60 min of incubation with liver microsomes, NADP^+, and an NADPH-regenerating system was determined in duplicate samples. 6a, 6b, and 18 stability following 0 and 60 min of incubation with liver microsomes in the absence of NADP^+ was also determined.
Samples for each test compound generated from the assay were analyzed as one batch by the qualified LC-MS/MS method. The sample batch consisted of the following: initial system check standards (three replicates), the assay samples (in duplicate) and the final system check standards (three replicates). A batch was considered acceptable if the system check injection acceptance criteria described above was met.
The study was conducted with cryopreserved human liver microsomes, pooled from 15 donors (mixed pool of male and female donors). Pooled donor microsomes were used in order to represent an “average” metabolic activity. The microsomes have been characterized by the supplier for Phase I (CYP1A2, CYP2A6, CYP2B6, CYP2C8, CYP2C9, CYP2C19, CYP2D6, CYP2E1, CYP3A4, CYP4A11 and FMO) and Phase II (UGT1A1, UGT1A4 and UGT1A9) enzymatic activity.
1. The assay was performed with 0.5 mg/mL human liver microsomes in 50 mM potassium phosphate buffer, pH 7.4 (PPB), and in the presence of an NADPH regenerating system (1.3 mM NADP^+, 3.3 mM glucose-6-phosphate, 0.4 U/mL glucose-6-phosphate dehydrogenase) and 3.3 mM MgCl2. All incubations were performed in duplicate. One concentration of test compound was tested (10 μM). 2. A stock solution of microsomes (20 mg/mL) was thawed in a 37° C. water bath on the day of the assay and then immediately placed on ice. The microsomes were then diluted with an appropriate volume of PPB, such that the final protein concentration in the assay was 0.5 mg/mL, and the final PPB concentration was 50 mM. 3. An appropriate aliquot of the 1 mM stock solution of the test compounds (in water) was added to the diluted microsomes, and then the mixture was warmed to 37° C. for 5 min in an incubator. […] These samples represent the time zero samples. 4. An aliquot (375 μL) of the pre-warmed liver microsomes and test compound mixture was dispensed into a well of a 24-well plate. A 125 μL aliquot of pre-warmed (37° C. for 5 min) 4-fold concentrated NADPH regenerating system solution was then added to start the reaction. Reaction mixtures (0.5 mL) were incubated in a shaking incubator (150 rpm) at 37° C. 5. One hundred μL of the reaction mixture was sampled following 15, 30, and 60 min of incubation. Each sample with test compound was immediately added to a chilled labeled centrifuge tube containing 100 μL of ice cold methanol to terminate the reaction. 6. All samples were mixed by vortex and then centrifuged (15,000×g for 10 min at 4° C.) to pellet the protein. An aliquot of the supernatant from each sample was then transferred to a clean, labeled centrifuge tube and stored at −70° C. until bioanalysis. 7. […] 8. As a control, test compound was incubated with microsomes in the absence of NADP^+. One hundred μL of the reaction mixture was sampled for control samples following 0 and 60 min of incubation as detailed above. 9. Data sheets with the date of the experiment, the Study No., the compound IDs, the sampling times, a plate map and any deviations to the protocol were recorded.
The mean of the test compound to the internal standard peak area ratios were calculated for the zero time sample.

| Peak Area Ratio 0 min (+NADP+, 10 μM) | Peak Area Ratio 15 min (+NADP+, 10 μM) | Peak Area Ratio 30 min (+NADP+, 10 μM) | Peak Area Ratio 60 min (+NADP+, 10 μM) | half-life at 10 μM (both sexes, pooled human liver microsomes, pH 7.4, human liver microsomes, with NADPH regenerating system, read-out: estimated half-life for disappearance from the microsomal reaction mixture) [h] | Peak Area Ratio 0 min (−NADP+, 10 μM) | Peak Area Ratio 60 min (−NADP+, 10 μM) | SMILES | metabolic stability in human liver microsomes (60 min incubation, 10 μM) |
| --- | --- | --- | --- | --- | --- | --- | --- | --- |
| 25.8 | 25.8 | 23.7 | 19.4 | 2.2 | 22.0 | 20.2 | CN1CCC(c2c[nH]c3ccc(NC(=N)c4cccs4)cc23)C1 (single isomer, unassigned) [Compound 6a, N-(3-(1-Methylpyrrolidin-3-yl)-1H-indol-5-yl)thiophene-2-carboximidamide] |  |
| 20.6 | 20.5 | 21.4 | 20.5 |  | 20.2 | 20.6 | CN1CCC(c2c[nH]c3ccc(NC(=N)c4cccs4)cc23)C1 (single isomer, unassigned) [Compound 6b, N-(3-(1-Methylpyrrolidin-3-yl)-1H-indol-5-yl)thiophene-2-carboximidamide] | metabolically stable over 60 min of incubation |
